Assay results reported in US20240092773A1, “DIHYDRO-CYCLOPENTA-ISOQUINOLINE SULFONAMIDES DERIVATIVES” (UCB Biopharma SRL, priority 2019, published 2024).

Target: IgE-Tb binding to soluble IgE receptor FcεR1α (Y131A mutation) (Homo sapiens, UniProt P01854, N146Q/N252Q)
Assay: In vitro FRET assay: inhibition of binding of IgE-Tb to receptor FcεR1α-Y131A-AF488
Details: read-out: FRET IC50 range

Sequence of IgE-Tb binding to soluble IgE receptor FcεR1α (Y131A mutation) (P01854 whole entry N146Q/N252Q, looked up): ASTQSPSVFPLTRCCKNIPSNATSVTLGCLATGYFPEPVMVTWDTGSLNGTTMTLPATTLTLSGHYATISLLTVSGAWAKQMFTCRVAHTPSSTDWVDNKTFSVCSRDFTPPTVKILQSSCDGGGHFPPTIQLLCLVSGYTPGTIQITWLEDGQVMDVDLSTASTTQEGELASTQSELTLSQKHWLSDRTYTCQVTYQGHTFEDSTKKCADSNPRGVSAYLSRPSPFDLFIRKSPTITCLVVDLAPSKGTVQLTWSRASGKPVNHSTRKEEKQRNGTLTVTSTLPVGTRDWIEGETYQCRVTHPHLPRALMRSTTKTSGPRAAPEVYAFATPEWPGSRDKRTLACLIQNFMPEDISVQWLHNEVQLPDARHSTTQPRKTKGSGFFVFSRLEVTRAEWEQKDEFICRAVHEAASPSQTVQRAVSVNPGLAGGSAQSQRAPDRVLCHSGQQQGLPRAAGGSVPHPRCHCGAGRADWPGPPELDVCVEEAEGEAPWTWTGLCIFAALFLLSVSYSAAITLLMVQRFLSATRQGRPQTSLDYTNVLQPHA

With `CCNC(=O)N[C@@H]1CCc2c1cc(S(=O)(=O)NCC(C)C)c1cc(C3CC3)ncc21` (stereo in doubt) [Example 85, 1-ethyl-3-[(7R*)-3-cyclopropyl-5-(2-methylpropylsulfamoyl-8,9-dihydro-7H-cyclopenta[h]isoquinolin-7-yl]urea] the IC50 was 10 to 50 nM.
Work on `CC(C)CNS(=O)(=O)c1cc2c(c3cnc(C4CC4)cc13)CCC2O` (centres unmarked) [Example 47, 3-cyclopropyl-7-hydroxy-N-(2-methylpropyl)-8,9-dihydro-7H-cyclopenta[h]isoquinoline-5-sulfonamide] yielded an IC50 of 100 to 2000 nM.
Compound `Cc1cncc(Nc2nncn2[C@@H]2CCc3c2cc(S(=O)(=O)NCC(C)C)c2cc(C4CC4)ncc32)c1` (single isomer, unassigned) [Example 89, (7R*)-3-cyclopropyl-N-(2-methylpropyl)-7-[3-[(5-methylpyridin-3-yl)amino]-1,2,4-triazol-4-yl]-8,9-dihydro-7H-cyclopenta[h]isoquinoline-5-sulfonamide] has an IC50 of 1 to 10 nM.
Compound `Cc1ccc(N/C(=N\C#N)NC2CCc3cc(S(=O)(=O)NCC(C)C)c4cc(C5CC5)ncc4c32)cc1` (centres unmarked) [Example 69, 2-cyano-1-[3-cyclopropyl-5-(2-methylpropylsulfamoyl)-8,9-dihydro-7H-cyclopenta[h]isoquinolin-9-yl]-3-(4-methylphenyl)guanidine] has an IC50 of 100 to 2000 nM.
Compound `CC(C)CNS(=O)(=O)c1cc2c(c3cnc(C4CC4)cc13)CCC2Nc1c(Nc2cccnc2)c(=O)c1=O` (centres unmarked) [Example 84, 3-cyclopropyl-7-[[3,4-dioxo-2-(pyridin-3-ylamino)cyclobuten-1-yl]amino]-N-(2-methylpropyl)-8,9-dihydro-7H-cyclopenta[h]isoquinoline-5-sulfonamide] has an IC50 of 10 to 50 nM.
For `O=S(=O)(NC1CC(F)C1)c1cc2c(c3cnc(C4CC4)cc13)CCC2n1cnnc1NCC1CC1` (centres unmarked) [Example 82, 3-cyclopropyl-7-[3-(cyclopropylmethylamino)-1,2,4-triazol-4-yl]-N-(3-fluorocyclobutyl)-8,9-dihydro-7H-cyclopenta[h]isoquinoline-5-sulfonamide], the IC50 was 100 to 2000 nM.
Work on `CC(C)CNS(=O)(=O)c1cc2c(c3cnc(C4CC4)cc13)C(NS(C)(=O)=O)CC2` (centres unmarked) [Example 70, 3-cyclopropyl-9-(methanesulfonamido)-N-(2-methylpropyl)-8,9-dihydro-7H-cyclopenta[h]isoquinoline-5-sulfonamide] yielded an IC50 of 100 to 2000 nM.
`Cc1nnc(-c2ccc(NC3CCc4c3cc(S(=O)(=O)NCC(C)(C)F)c3cc(C5CC5)ncc43)cn2)o1` (centres unmarked) [Example 42, 3-cyclopropyl-N-(2-fluoro-2-methylpropyl)-7-[[6-(5-methyl-1,3,4-oxadiazol-2-yl)pyridin-3-yl]amino]-8,9-dihydro-7H-cyclopenta[h]isoquinoline-5-sulfonamide] was tested, and the IC50 was 1 to 10 nM.
`Cc1ccc(NC(=NC#N)NC2CCc3c2cc(S(=O)(=O)NCC(C)C)c2cc(C4CC4)ncc32)cc1` (centres unmarked) [Example 55, 2-cyano-1-[3-cyclopropyl-5-(2-methylpropylsulfamoyl)-8,9-dihydro-7H-cyclopenta[h]isoquinolin-7-yl]-3-(4-methylphenyl)guanidine] showed an IC50 of 100 to 2000 nM.
For `Cc1cc(NC(=S)NC2CCc3c2cc(S(=O)(=O)NCC(C)(C)F)c2cc(C4CC4)nnc32)n(C)n1` (centres unmarked) [Example 23, 1-[3-cyclopropyl-5-[(2-fluoro-2-methylpropyl)sulfamoyl]-8,9-dihydro-7H-cyclopenta[h]cinnolin-7-yl]-3-(2,5-dimethylpyrazol-3-yl)thiourea], the IC50 was 10 to 50 nM.
Compound `Cn1nnc(-c2ccc(NC3CCc4cc(S(=O)(=O)NCC(C)(C)F)c5cc(C6CC6)ncc5c43)cn2)n1` (centres unmarked) [Example 77, 3-cyclopropyl-N-(2-fluoro-2-methylpropyl)-9-[[6-(2-methyltetrazol-5-yl)pyridin-3-yl]amino]-8,9-dihydro-7H-cyclopenta[h]isoquinoline-5-sulfonamide] has an IC50 of 50 to 100 nM.
`CC(C)CNS(=O)(=O)c1cc2c(c3cnc(C4CC4)cc13)CCC2N` (centres unmarked) [Example 50, 7-amino-3-cyclopropyl-N-(2-methylpropyl)-8,9-dihydro-7H-cyclopenta[h]isoquinoline-5-sulfonamide] gave an IC50 of 100 to 2000 nM.
`Cc1cc(Nc2nncn2[C@H]2CCc3c2cc(S(=O)(=O)NCC(C)(C)F)c2cc(C4CC4)ncc32)n(C)n1` (single isomer, unassigned) [Example 86, (7R*)-3-cyclopropyl-7-[3-[(2,5-dimethylpyrazol-3-yl)amino]-1,2,4-triazol-4-yl]-N-(2-fluoro-2-methylpropyl)-8,9-dihydro-7H-cyclopenta[h]isoquinoline-5-sulfonamide] was tested, and the IC50 was 50 to 100 nM.
With `Cc1cc(C(=O)N[C@@H]2CCc3cc(S(=O)(=O)NCC(C)C)c4cc(C5CC5)ncc4c32)n[nH]1` (single isomer, unassigned) [Example 20, 5-methyl-N-[(9R*)-3-cyclopropyl-5-(2-methylpropylsulfamoyl)-8,9-dihydro-7H-cyclopenta[h]isoquinolin-9-yl]-1H-pyrazole-3-carboxamide] the IC50 was 100 to 2000 nM.
For `CC(C)CNS(=O)(=O)c1cc2c(c3cnc(C4CC4)cc13)CCC2Nc1nncn1-c1cccnc1` (centres unmarked) [Example 90, 3-cyclopropyl-N-(2-methylpropyl)-7-[(4-pyridin-3-yl-1,2,4-triazol-3-yl)amino]-8,9-dihydro-7H-cyclopenta[h]isoquinoline-5-sulfonamide], the IC50 was 100 to 2000 nM.
Compound `CC(C)(F)CNS(=O)(=O)c1cc2c(c3cnc(C4CC4)cc13)C(Nc1cncc3ccccc13)CC2` (centres unmarked) [Example 68, 3-cyclopropyl-N-(2-fluoro-2-methylpropyl)-9-(isoquinolin-4-ylamino)-8,9-dihydro-7H-cyclopenta[h]isoquinoline-5-sulfonamide] has an IC50 of 100 to 2000 nM.
With `[2H]C([2H])(NS(=O)(=O)c1cc2c(c3cnc(C4CC4)cc13)CCC2NC(=O)OC(C)(C)C)C(C)C` (centres unmarked) [Example 33, tert-butyl N-[3-cyclopropyl-5-[(1,1-dideuterio-2-methylpropyl)sulfamoyl]-8,9-dihydro-7H-cyclopenta[h]isoquinolin-7-yl]carbamate] the IC50 was 100 to 2000 nM.
For `CC(C)CNS(=O)(=O)c1cc2c(c3cnc(C4CC4)cc13)C(Nc1c(Nc3cccnc3)c(=O)c1=O)CC2` (centres unmarked) [Example 78, 3-cyclopropyl-9-[[3,4-dioxo-2-(pyridin-3-ylamino)cyclobuten-1-yl]amino]-N-(2-methylpropyl)-8,9-dihydro-7H-cyclopenta[h]isoquinoline-5-sulfonamide], the IC50 was 50 to 100 nM.
Compound `CC(C)CNS(=O)(=O)c1cc2c(c3cnc(C4CC4)cc13)C(Nc1nncn1-c1cccnc1)CC2` (centres unmarked) [Example 75, 3-cyclopropyl-N-(2-methylpropyl)-9-[(4-pyridin-3-yl-1,2,4-triazol-3-yl]amino]-8,9-dihydro-7H-cyclopenta[h]isoquinoline-5-sulfonamide] has an IC50 of 10 to 50 nM.
In the case of `CC(C)(F)CNS(=O)(=O)c1cc2c(c3cnc(C4CC4)cc13)CCC2NCc1cc2ccccc2[nH]1` (centres unmarked) [Example 61, 3-cyclopropyl-N-(2-fluoro-2-methylpropyl)-7-(1H-indol-2-ylmethylamino)-8,9-dihydro-7H-cyclopenta[h]isoquinoline-5-sulfonamide], the IC50 is reported as 100 to 2000 nM.
`CCNC(=S)NC1CCc2cc(S(=O)(=O)NCC(C)C)c3cc(C4CC4)ncc3c21` (centres unmarked) [Example 71, 1-[3-cyclopropyl-5-(2-methylpropylsulfamoyl)-8,9-dihydro-7H-cyclopenta[h]isoquinolin-9-yl]-3-ethylthiourea] was tested, and the IC50 was 100 to 2000 nM.
`CC(C)CNS(=O)(=O)c1cc2c(c3cnc(C4CC4)cc13)CCC2NC(=S)Nc1cccnc1` (centres unmarked) [Example 95, 1-[3-cyclopropyl-5-(isobutylsulfamoyl)-8,9-dihydro-7H-cyclopenta[h]isoquinolin-7-yl]-3-(3-pyridyl)thiourea] was tested, and the IC50 was 10 to 50 nM.
`CC(C)(F)CNS(=O)(=O)c1cc2c(c3cnc(C4CC4)cc13)CCC2n1nnnc1N` (centres unmarked) [Example 39, 7-(5-aminotetrazol-1-yl)-3-cyclopropyl-N-(2-fluoro-2-methylpropyl)-8,9-dihydro-7H-cyclopenta[h]isoquinoline-5-sulfonamide] showed an IC50 of 100 to 2000 nM.
